The numbers were not newly measured in patent US12090156B2, “Application of CB-839 in preparation of drug for inhibiting corneal neovascularization (CNV)” (Institute of Ophthalmology Affiliated to Shandong First …, priority 2022, dated 2024), which cites them from elsewhere.

The structures appear in SMILES notation.

The data set concerns cancer cell lines such as triple-negative breast cancer (TNBC), lung adenocarcinoma, chondrosarcoma, and lymphoma cell lines.

Regarding `O=C(Cc1cccc(OC(F)(F)F)c1)Nc1ccc(CCCCc2nnc(NC(=O)Cc3ccccn3)s2)nn1` [CB-839], the antiproliferative activity entry is given as “significant antiproliferative activity”.
